Results taken from ChEMBL document CHEMBL3045982, “Design, synthesis and structure-activity relationship of novel coumarin derivatives” (Pest Manag Sci, 2011).

Assays:
[1] = system: Pseudoperonospora cubensis; assay: Fungicidal activity against Pseudoperonospora cubensis at 25 mg/L relative to untreated control; assay type: functional
[2] = system: Pseudoperonospora cubensis; assay: Fungicidal activity against Pseudoperonospora cubensis at 6.25 mg/L relative to untreated control; assay type: functional
[3] = system: Pseudoperonospora cubensis; assay: Fungicidal activity against Pseudoperonospora cubensis at 50 mg/L relative to untreated control; assay type: functional
[4] = system: Pseudoperonospora cubensis; assay: Fungicidal activity against Pseudoperonospora cubensis at 200 mg/L relative to untreated control; assay type: functional
[5] = system: Pseudoperonospora cubensis; assay: Fungicidal activity against Pseudoperonospora cubensis at 100 mg/L relative to untreated control; assay type: functional
Cytospora [6] = assay: Fungicidal activity against Cytospora mandshurica Miura at 1000 mg/L of 25% compound under field trials condition relative to untreated control; assay type: functional
Cytospora [7] = assay: Fungicidal activity against Cytospora mandshurica Miura under green house condition in presence of 98% compound; assay type: functional, organism-based
Cytospora [8] = assay: Fungicidal activity against Cytospora mandshurica Miura at 500 mg/L of 20% compound under field trials conditions relative to untreated control; assay type: functional
Cytospora [9] = assay: Fungicidal activity against Cytospora mandshurica Miura at 1000 mg/L of 20% compound under field trials condition relative to untreated control; assay type: functional
Cytospora [10] = assay: Fungicidal activity against Cytospora mandshurica Miura under green house condition in presence of 20% compound; assay type: functional, organism-based
Cytospora [11] = assay: Fungicidal activity against Cytospora mandshurica Miura under green house condition in presence of 96% compound; assay type: functional, organism-based

Compound `CNC(=O)/C(=N/OC)c1ccccc1COc1ccc2c(C)c(C)c(=O)oc2c1C` has an Activity [1] of 20%, an Activity [2] of 0% and an Activity [3] of 30%. It also gave an Activity [4] of 95% and an Activity [5] of 85%.

`CO/C=C(/C(=O)OC)c1ccccc1COc1ccc2c3c(c(=O)oc2c1)CCCC3` showed an Activity [1] of 100% and an Activity [2] of 75%.

Compound `CCCc1c(C)c2ccc(OCc3ccccc3/C(=C\OC)C(=O)OC)cc2oc1=O` has an Activity [1] of 20%, an Activity [2] of 0% and an Activity [3] of 30%. The Activity [4] was 100% and the Activity [5] was 80%.

`CO/C=C(/C(=O)OC)c1ccccc1COc1ccc2c(C)c(F)c(=O)oc2c1` gave an Activity [1] of 95%, an Activity [2] of 60% and an Activity [3] of 100%. For the same compound, the Activity [4] was 100% and the Activity [5] was 100%.

Work on `CO/N=C(/C(=O)OC)c1ccccc1COc1ccc2c(C)c(C)c(=O)oc2c1C` yielded an Activity [1] of 50%, an Activity [2] of 40% and an Activity [3] of 60%. The Activity [4] was 95% and the Activity [5] was 85%.

`CO/C=C(/C(=O)OC)c1ccccc1COc1cc2oc(=O)cc(C)c2cc1/C(C)=N\OC` was tested, and the Activity [4] was 80%.

`CO/C=C(/C(=O)OC)c1ccccc1COc1ccc2c3c(c(=O)oc2c1C)CCC3` was tested, and the Activity [4] was 0%.

`CO/C=C(/C(=O)OC)c1ccccc1COc1ccc2c(C(F)(F)F)cc(=O)oc2c1` was tested, and the Activity [1] was 70%, the Activity [2] was 50% and the Activity [3] was 80%. For the same compound, the Activity [4] was 100% and the Activity [5] was 95%.

For `CO/C=C(/C(=O)OC)c1ccccc1COc1ccc2c(-c3ccccc3)cc(=O)oc2c1`, the Activity [1] was 60%, the Activity [2] was 50% and the Activity [3] was 80%. It also gave an Activity [4] of 100% and an Activity [5] of 100%.

Work on `CO/C=C(/C(=O)OC)c1ccccc1COc1ccc2oc(=O)c(C)c(C)c2c1` yielded an Activity [4] of 70%.

For `CO/C=C(/C(=O)OC)c1ccccc1COc1cc(=O)oc2ccccc12`, the Activity [1] was 0%, the Activity [2] was 0% and the Activity [3] was 30%. The Activity [4] was 85% and the Activity [5] was 70%.

Compound `CCCCc1c(C)c2ccc(OCc3ccccc3N(OC)C(=O)OC)cc2oc1=O` has an Activity [1] of 75%, an Activity [2] of 50% and an Activity [3] of 90%. It also gave an Activity [4] of 100% and an Activity [5] of 100%.

For `CO/C=C(/C(=O)OC)c1ccccc1Oc1cc(Oc2ccccc2C#N)ncn1` [AZOXYSTROBIN], the Efficacy (Cytospora [6]) was 73.5%, the EC50 (Cytospora [7]) was 2.78 µg/mL and the Activity [1] was 100%. For the same compound, the Activity [2] was 95%.

Compound `CO/C=C(/C(=O)OC)c1ccccc1COc1cc2oc(=O)cc(C)c2cc1C(C)=O` has an Activity [1] of 50%, an Activity [2] of 0% and an Activity [3] of 80%. It also gave an Activity [4] of 90% and an Activity [5] of 85%.

`CO/C=C(/C(=O)OC)c1ccccc1COc1ccc2c(-c3ccccc3)cc(=O)oc2c1C` gave an Activity [1] of 50%, an Activity [2] of 30% and an Activity [3] of 90%. The Activity [4] was 95% and the Activity [5] was 90%.

`CO/C=C(/C(=O)OC)c1ccccc1COc1ccc2c(C)cc(=O)oc2c1` was tested, and the Activity [1] was 97%, the Activity [2] was 45% and the Activity [3] was 100%. The Activity [4] was 100% and the Activity [5] was 100%.

In the case of `CO/C=C(/C(=O)OC)c1ccccc1COc1ccc2c(C)cc(=O)oc2c1C(C)=O`, the Activity [4] is reported as 60%.

For `CCCCc1c(C)c2ccc(OCc3ccccc3/C(=C\OC)C(=O)OC)cc2oc1=O` [Coumoxystrobin], the Efficacy (Cytospora [8]) was 88.5%, the Efficacy (Cytospora [9]) was 97.3% and the EC50 (Cytospora [10]) was 1.72 µg/mL. The EC50 (Cytospora [11]) was 1.83 µg/mL, the Activity [1] was 100% and the Activity [2] was 95%. For the same compound, the Activity [3] was 100%, the Activity [4] was 100% and the Activity [5] was 100%.

`CCCCCCc1c(C)c2ccc(OCc3ccccc3/C(=C\OC)C(=O)OC)cc2oc1=O` showed an Activity [1] of 100%, an Activity [2] of 80% and an Activity [3] of 100%. The Activity [4] was 100% and the Activity [5] was 100%.

With `CO/C=C(/C(=O)OC)c1ccccc1COc1cccc2c(C)c(C)c(=O)oc12` the Activity [4] was 0%.

`COC(=O)N(OC)c1ccccc1COc1ccc2c(C)c(C)c(=O)oc2c1C` showed an Activity [1] of 50%, an Activity [2] of 0% and an Activity [3] of 75%. The Activity [4] was 90% and the Activity [5] was 80%.

Work on `CO/C=C(/C(=O)OC)c1ccccc1COc1ccc2c(-c3ccc(Cl)cc3)cc(=O)oc2c1` yielded an Activity [4] of 70%.

`CO/C=C(/C(=O)OC)c1ccccc1COc1ccc2oc(=O)cc(C)c2c1` gave an Activity [1] of 0%, an Activity [2] of 0% and an Activity [3] of 30%. It also gave an Activity [4] of 85% and an Activity [5] of 60%.

Compound `CO/C=C(/C(=O)OC)c1ccccc1COc1ccc2c3c(c(=O)oc2c1)CCC3` has an Activity [1] of 100% and an Activity [2] of 40%.

Work on `CO/C=C(/C(=O)OC)c1ccccc1COc1ccc2c(C)cc(=O)oc2c1/C(C)=N/OC` yielded an Activity [4] of 30%.

With `CO/N=C(/C(=O)OC)c1ccccc1COc1ccccc1C` [KRESOXIM-METHYL] the Activity [1] was 35% and the Activity [2] was 0%.

Work on `CCc1c(C)c2ccc(OCc3ccccc3/C(=C\OC)C(=O)OC)cc2oc1=O` yielded an Activity [1] of 20%, an Activity [2] of 0% and an Activity [3] of 80%. The Activity [4] was 100% and the Activity [5] was 100%.

`CO/C=C(/C(=O)OC)c1ccccc1COc1ccc2c(C(C)C)cc(=O)oc2c1` gave an Activity [1] of 95%, an Activity [2] of 50% and an Activity [3] of 100%. For the same compound, the Activity [4] was 100% and the Activity [5] was 100%.

For `CO/C=C(/C(=O)OC)c1ccccc1COc1ccc2c(C)c(C)c(=O)oc2c1`, the Activity [1] was 100%, the Activity [2] was 85% and the Activity [3] was 100%. The Activity [4] was 100% and the Activity [5] was 100%.

In the case of `CO/C=C(/C(=O)OC)c1ccccc1COc1ccc2c(C)c(Cl)c(=O)oc2c1`, the Activity [1] is reported as 100%, the Activity [2] is reported as 75% and the Activity [3] is reported as 100%. For the same compound, the Activity [4] was 100% and the Activity [5] was 100%.

`COC(=O)N(OC)c1ccccc1COc1ccc2c(C)c(C)c(=O)oc2c1` was tested, and the Activity [1] was 85%, the Activity [2] was 65% and the Activity [3] was 100%. The Activity [4] was 100% and the Activity [5] was 100%.

`CO/C=C(/C(=O)OC)c1ccccc1COc1cccc(C(F)(F)F)n1` [PICOXYSTROBIN] showed an Activity [1] of 95% and an Activity [2] of 50%.

`CO/N=C(/C(=O)OC)c1ccccc1COc1ccc2c(C)c(Cl)c(=O)oc2c1` was tested, and the Activity [1] was 85%, the Activity [2] was 65% and the Activity [3] was 90%. It also gave an Activity [4] of 100% and an Activity [5] of 100%.

Compound `CO/C=C(/C(=O)OC)c1ccccc1COc1ccc2c(-c3ccc(Cl)nc3)cc(=O)oc2c1` has an Activity [1] of 40%, an Activity [2] of 0% and an Activity [3] of 75%. For the same compound, the Activity [4] was 90% and the Activity [5] was 80%.

`CO/C=C(/C(=O)OC)c1ccccc1COc1ccc2c(-c3ccc(C(F)(F)F)cc3)cc(=O)oc2c1` was tested, and the Activity [4] was 85% and the Activity [5] was 70%.

For `CCCc1cc(=O)oc2cc(OCc3ccccc3/C(=C\OC)C(=O)OC)ccc12`, the Activity [1] was 95%, the Activity [2] was 55% and the Activity [3] was 100%. It also gave an Activity [4] of 100% and an Activity [5] of 100%.

Work on `CCc1cc(=O)oc2cc(OCc3ccccc3/C(=C\OC)C(=O)OC)ccc12` yielded an Activity [1] of 100%, an Activity [2] of 50% and an Activity [3] of 100%. It also gave an Activity [4] of 100% and an Activity [5] of 100%.

With `CO/C=C(/C(=O)OC)c1ccccc1COc1ccc2ccc(=O)oc2c1` the Activity [1] was 50%, the Activity [2] was 0% and the Activity [3] was 70%. The Activity [4] was 100% and the Activity [5] was 100%.

In the case of `CO/C=C(/C(=O)OC)c1ccccc1COc1ccc2c3c(c(=O)oc2c1C)CCCC3`, the Activity [4] is reported as 50%.
